From PubChem BioAssay AID651569 (Sanford-Burnham Center for Chemical Genomics, 2012)
Active and inactive are the calls of the source. The rule behind the calls is not given here.

Tested on: luminescent cytotoxicity (cell viability) counter-screen
Test: cytotoxicity of Gli-SUFU antagonist hits, dose response, cytotoxicity control for Gli-SUFU antagonist project, cell-based, luminescence, uHTS hits (AID 651569);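 note: compound exposure lasted overnight before the viability readout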

Row | SMILES | IC50
1 | C=CCNC(=S)/N=c1/ccccn1Cc1ccccc1 | > 20 µM (inactive)
2 | N=c1c2c(n(Cc3ccc(F)cc3)c3c1CCC3)CCCC2 | > 20 µM (inactive)
3 | Cc1nnsc1C(=O)Nc1ccc(S(=O)(=O)N2CCC(C)CC2)cc1 | > 20 µM (inactive)
4 | CCOc1ccc(-n2c(O)c(/C=N/Nc3nc(C)cc(C)n3)c3ccccc3c2=O)cc1 | > 20 µM (inactive)
5 | Brc1ccc(-c2csc(N3CCCCCC3)n2)cc1 | > 20 µM (inactive)
6 | COc1ccccc1-n1c(-c2ccccc2)c[n+]2c1CCc1ccccc1-2 | > 20 µM (inactive)
7 | CCc1ccccc1NC(=S)N=Nc1c(O)n(C)c2ccc(S(=O)(=O)N3CCOCC3)cc12 | > 20 µM (inactive)
8 | CCCCCn1c(=N)n(CC(O)COc2ccccc2OC)c2ccccc21 (centres undefined) | > 20 µM (inactive)
9 | CC[C@@H](O)C[C@H]1CCC[C@@]2(C[C@@H]3OC(=O)/C=C/[C@@](C)(O)[C@@H](O)[C@H](C)[C@@H](O)[C@H](OC4CCC(N(C)C)C(C)O4)[C@@H](O)[C@](C)(O)CCCCC/C=C/[C@@H]4CC(C)(C)O[C@@]4(O)C[C@H](O2)[C@H]3C)O1 (some centres undefined) | > 20 µM (inactive)
10 | CC1CCC(NC(=O)c2cccc(S(=O)(=O)N3CCN(c4ccccc4)CC3)c2)CC1 (centres undefined) | > 20 µM (inactive)
11 | CCCn1c(SCC(=O)Nc2nc(-c3ccc(OC)cc3)cs2)nc2c1c(=O)n(C)c(=O)n2C | > 20 µM (inactive)
12 | CC(=O)c1cccc(NS(=O)(=O)c2ccc(-c3cnc(C4CC4)o3)cc2)c1 | 6.78 µM
13 | CC(=O)c1cn(Cc2ccccc2F)c2ccccc12 | > 20 µM (inactive)
14 | Cc1sc2ncnc(NCC(O)c3ccc([N+](=O)[O-])cc3)c2c1C (centres undefined) | > 20 µM (inactive)
15 | O=C(c1cc2sccc2n1Cc1ccccc1)N1CCN(c2nc3ccccc3s2)CC1 | > 20 µM (inactive)
16 | O=C(NCCNc1ccnc2cc(Cl)ccc12)c1ccccc1F | > 20 µM (inactive)
17 | Cc1cc(Br)c(S(=O)(=O)NCc2ccncc2)cc1C | > 20 µM (inactive)
18 | CCCCOCCCNc1ncnc2c1[nH]c1ccccc12 | > 20 µM (inactive)
19 | CCCc1nc(SCC(=O)Nc2nnc(CC)s2)c2c(=O)n(C)c(=O)n(C)c2n1 | > 20 µM (inactive)
20 | CCn1c(/C=C/Nc2ccccc2)[n+](CC)c2ccc(Cl)cc21 | > 20 µM (inactive)
21 | CNc1nc(NCc2ccccc2)c2ccccc2n1 | > 20 µM (inactive)
22 | O=C(Nc1cc2c3c(c1)C1CCCC1CN3CC1CCCC21)c1ccc([N+](=O)[O-])cc1 (centres undefined) | > 20 µM (inactive)
23 | c1ccc(Cn2c(-c3ccccc3)c[n+]3c2SCCC3)cc1 | > 20 µM (inactive)
24 | c1ccc(C[n+]2cccc(-c3ccccc3)c2)cc1 | > 20 µM (inactive)
25 | CN1/C(=C\C=Nc2ccccc2)C(C)(C)c2ccccc21 | > 20 µM (inactive)
26 | CC(C)Cn1c(N)c(C(=O)COC(=O)C2Cc3ccccc3CN2S(C)(=O)=O)c(=O)n(C)c1=O (centres undefined) | > 20 µM (inactive)
27 | Cc1c(C(C)C)c(=O)n(-c2ccc(S(=O)(=O)NCc3ccccc3)cc2)n1C | > 20 µM (inactive)

Row | SMILES | IC50
28 | CC[N+]1=C(C)C(C)(C)c2cc(C)ccc21 | > 20 µM (inactive)
29 | Cc1cc(=O)[nH]c(SCC(=O)/C=C2\N(C)c3ccccc3C2(C)C)n1 | > 20 µM (inactive)
30 | CCN(CC)C(=O)c1ccc(S(=O)(=O)N2CCC(c3nc4ccccc4s3)CC2)cc1 | > 20 µM (inactive)
31 | Cc1c(CCOC(=O)C23CC4CC(CC(C)(C4)C2)C3)sc[n+]1Cc1ccccc1 | > 20 µM (inactive)
32 | CC(=O)N1c2ccc(S(=O)(=O)N3CCC(C(=O)N4CCCCC4)CC3)cc2CC1C (centres undefined) | > 20 µM (inactive)
33 | O=S(=O)(NCc1ccncc1)c1ccc(S(=O)(=O)NCC2CCCO2)cc1 (centres undefined) | > 20 µM (inactive)
34 | Cc1ccc(Cl)cc1N1CCN(C(=O)CSc2nnc3n2C(C)(C)Cc2ccccc2-3)CC1 | > 20 µM (inactive)
35 | CCOc1ccc(-c2cc(C)[n+](CCO)c(-c3ccc(OCC)cc3)c2)cc1 | > 20 µM (inactive)
36 | C(#Cc1ccccc1)C[N+]1(CC#Cc2ccccc2)CCCC1 | > 20 µM (inactive)
37 | O=C(NC(c1cccnc1)C(F)(F)F)c1cc(COc2ccc3c(c2)CCCC3)on1 (centres undefined) | > 20 µM (inactive)
38 | COc1ccc(C(C(=O)NC2CCCCC2)N(C(=O)CCl)c2ccc(Cl)cc2)cc1 (centres undefined) | 4.86 µM
39 | Cc1ccc(S(=O)(=O)NCCC2=CCCCC2)cc1C(N)=O | > 20 µM (inactive)
40 | C/C(=N\NC(=O)C(=O)Nc1ccc(C)c(Cl)c1)c1ccncc1 | > 20 µM (inactive)
41 | CCN1C(=O)CCN(C2CCCC2)c2nc(Nc3ccc(C(=O)NC4CCN(C)CC4)cc3OC)ncc21 | > 20 µM (inactive)
42 | Cc1cc(C)nc(SCC(=O)Nc2ccc(N3CCOCC3)c(Cl)c2)n1 | > 20 µM (inactive)
43 | O=C(Cn1cnc2ccccc21)Nc1cccc(S(=O)(=O)N2CCCC2)c1 | > 20 µM (inactive)
44 | O=C(Cc1csc(Nc2nc(=S)[nH]c3ccccc23)n1)NCCCN1CCN(c2ccccc2F)CC1 | > 20 µM (inactive)
45 | O=C(C[C@@H]1C/C=C\C[C@@H](NC(=O)OCC2c3ccccc3-c3ccccc32)C(=O)OC[C@@H](Cc2ccccc2)NC1=O)NCCO | > 20 µM (inactive)
46 | COc1ccc(CNCC(O)COc2cccc3c2OC(C)(C)C3)cc1 (centres undefined) | > 20 µM (inactive)
47 | CC(C)Cc1ccc(C(C)C(=O)Nc2cccnc2)cc1 (centres undefined) | > 20 µM (inactive)
48 | CC(C)(C)[C@H]1COC(=O)[C@H](NC(=O)OCC2c3ccccc3-c3ccccc32)C/C=C\C[C@@H](CC(=O)N(CCO)Cc2ccccc2)C(=O)N1 | > 20 µM (inactive)
49 | CCCOc1ccccc1N/C(=N/c1nc(C)cc(C)n1)NC(=O)COc1ccc(OC)cc1 | > 20 µM (inactive)
50 | Cc1ccc2c(c1)c(C)cc[n+]2Cc1ccccc1 | > 20 µM (inactive)
51 | CC(C)CCOC(=O)C[N+](C)(C)CCOC1CC2CCC1(C)C2(C)C (centres undefined) | > 20 µM (inactive)
52 | O=C(c1cc(COc2cccc3cnccc23)on1)N1CCCC(CCCO)C1 (centres undefined) | > 20 µM (inactive)
53 | COc1ccc(C(=O)C[n+]2cc(-c3ccc(OC)cc3)n3c2CCCC3)cc1 | > 20 µM (inactive)
54 | CCOC(=O)CC1CCCCN1C(=O)c1cc(COc2cccc3cnccc23)on1 (centres undefined) | > 20 µM (inactive)
